Literature values in patent US20210128641A1, “COMPOSITIONS AND METHODS FOR TREATING SKIN AND MUCOUS MEMBRANE DISEASES” (The Regents of the University of California, priority 2014, published 2021).

Tests used:
Propionibacterium acnes = conditions: in vitro
keratinocytes = conditions: in vitro

Substance	growth of Propionibacterium acnes on agar plates (Propionibacterium acnes)	death of keratinocytes caused by Staphylococcus aureus (keratinocytes)
Lactobacillus acidophilus	inhibit growth	
Lactobacillus plantarum	inhibit growth	
Lactobacillus reuteri		reduced death
